# Data taken from ChEMBL document CHEMBL2029316, “Linker-based hemisuccinate derivatives of artemisinin: synthesis and antimalarial assessment against multidrug-resistant Plasmodium yoelii nigeriensis in mice” (J Med Chem, 2012).
# Activity calls are given as the source filed them. The calls are words filed in the database; no cut-off is given here.
# Test system: Plasmodium yoelii nigeriensis
# Assay: Antimalarial activity against chloroquine-, mefloquine-, halofantrine-resistant Plasmodium yoelii nigeriensis blood stream schizonts infected in Swiss mouse assessed as suppression of parasitemia at 48 mg/kg, im administered once daily for 4 days relative to control
# Format: functional
# Conditions: route intramuscular
row,SMILES,Activity
1,C[C@H]1[C@@H](OCCCCCCCCOC(=O)CCC(=O)O)O[C@@H]2O[C@@]3(C)CC[C@H]4[C@H](C)CC[C@@H]1[C@@]24OO3,100%
2,C[C@H]1[C@@H](OCCCCCCOC(=O)CCC(=O)O)O[C@@H]2O[C@@]3(C)CC[C@H]4[C@H](C)CC[C@@H]1[C@@]24OO3,98.55%
3,C[C@H]1[C@@H](OCCOCCOCCOCCO)O[C@@H]2O[C@@]3(C)CC[C@H]4[C@H](C)CC[C@@H]1[C@@]24OO3,100%
4,C[C@H]1[C@@H](OCCCOC(=O)CCC(=O)O)O[C@@H]2O[C@@]3(C)CC[C@H]4[C@H](C)CC[C@@H]1[C@@]24OO3,100%
5,C[C@H]1[C@@H](OCCCCCO)O[C@@H]2O[C@@]3(C)CC[C@H]4[C@H](C)CC[C@@H]1[C@@]24OO3,100%
6,C[C@H]1[C@@H](OCCCCCOC(=O)CCC(=O)O)O[C@@H]2O[C@@]3(C)CC[C@H]4[C@H](C)CC[C@@H]1[C@@]24OO3,94.91%

# Test system: Plasmodium yoelii nigeriensis
# Assay: Antimalarial activity against chloroquine-, mefloquine-, halofantrine-resistant Plasmodium yoelii nigeriensis blood stream schizonts infected in Swiss mouse assessed as disease cured mouse at 48 mg/kg, im administered once daily for 4 days measured on day 28
# Format: functional, organism-based
# Parameters: dose 48 mg/kg
# Conditions: not given
row,SMILES,Activity
1,C[C@H]1[C@@H](OCCCCCCCCOC(=O)CCC(=O)O)O[C@@H]2O[C@@]3(C)CC[C@H]4[C@H](C)CC[C@@H]1[C@@]24OO3,Active
2,C[C@H]1[C@@H](OCCCCCCOC(=O)CCC(=O)O)O[C@@H]2O[C@@]3(C)CC[C@H]4[C@H](C)CC[C@@H]1[C@@]24OO3,inactive
3,C[C@H]1[C@@H](OCCCOC(=O)CCC(=O)O)O[C@@H]2O[C@@]3(C)CC[C@H]4[C@H](C)CC[C@@H]1[C@@]24OO3,inactive
4,C[C@H]1[C@@H](OCCCCCO)O[C@@H]2O[C@@]3(C)CC[C@H]4[C@H](C)CC[C@@H]1[C@@]24OO3,Active
5,C[C@H]1[C@@H](OCCCCCOC(=O)CCC(=O)O)O[C@@H]2O[C@@]3(C)CC[C@H]4[C@H](C)CC[C@@H]1[C@@]24OO3,inactive

# Test system: Plasmodium yoelii nigeriensis
# Assay: Antimalarial activity against chloroquine-, mefloquine-, halofantrine-resistant Plasmodium yoelii nigeriensis blood stream schizonts infected in Swiss mouse assessed as disease cured mouse at 3 mg/kg, im administered once daily for 4 days measured on day 28
# Format: functional, organism-based
# Parameters: dose 3 mg/kg
# Conditions: not given
row,SMILES,Activity
1,CCO[C@H]1O[C@@H]2O[C@@]3(C)CC[C@H]4[C@H](C)CC[C@@H]([C@H]1C)[C@@]24OO3 [ARTEMOTIL],inactive

# Test system: Plasmodium yoelii nigeriensis
# Assay: Antimalarial activity against chloroquine-, mefloquine-, halofantrine-resistant Plasmodium yoelii nigeriensis blood stream schizonts infected in Swiss mouse assessed as suppression of parasitemia at 6 mg/kg, im administered once daily for 4 days relative to control
# Format: functional
# Conditions: route intramuscular
row,SMILES,Activity
1,CCO[C@H]1O[C@@H]2O[C@@]3(C)CC[C@H]4[C@H](C)CC[C@@H]([C@H]1C)[C@@]24OO3 [ARTEMOTIL],100%
2,C[C@H]1[C@@H](OCCCCCO)O[C@@H]2O[C@@]3(C)CC[C@H]4[C@H](C)CC[C@@H]1[C@@]24OO3,100%

# Test system: Plasmodium yoelii nigeriensis
# Assay: Antimalarial activity against chloroquine-, mefloquine-, halofantrine-resistant Plasmodium yoelii nigeriensis blood stream schizonts infected in Swiss mouse assessed as disease cured mouse at 6 mg/kg, im administered once daily for 4 days measured on day 28
# Format: functional, organism-based
# Parameters: dose 6 mg/kg
# Conditions: not given
row,SMILES,Activity
1,CCO[C@H]1O[C@@H]2O[C@@]3(C)CC[C@H]4[C@H](C)CC[C@@H]([C@H]1C)[C@@]24OO3 [ARTEMOTIL],Active

# Test system: Plasmodium yoelii nigeriensis
# Assay: Antimalarial activity against chloroquine-, mefloquine-, halofantrine-resistant Plasmodium yoelii nigeriensis blood stream schizonts infected in Swiss mouse assessed as suppression of parasitemia at 24 mg/kg, im administered once daily for 4 days relative to control
# Format: functional
# Conditions: route intramuscular
row,SMILES,Activity
1,C[C@H]1[C@@H](OCCCCCCCCOC(=O)CCC(=O)O)O[C@@H]2O[C@@]3(C)CC[C@H]4[C@H](C)CC[C@@H]1[C@@]24OO3,100%
2,C[C@H]1[C@@H](OCCOCCOCCOCCO)O[C@@H]2O[C@@]3(C)CC[C@H]4[C@H](C)CC[C@@H]1[C@@]24OO3,100%
3,C[C@H]1[C@@H](OCCCCCO)O[C@@H]2O[C@@]3(C)CC[C@H]4[C@H](C)CC[C@@H]1[C@@]24OO3,100%
4,C[C@H]1[C@@H](OCCCCCOC(=O)CCC(=O)O)O[C@@H]2O[C@@]3(C)CC[C@H]4[C@H](C)CC[C@@H]1[C@@]24OO3,92.73%

# Test system: not listed separately
# Assay: Lipophilicity, log P of the compound
# Format: physicochemical
# Conditions: octanol/water
row,SMILES,logP
1,C[C@H]1[C@@H](OCCCCCCCCOC(=O)CCC(=O)O)O[C@@H]2O[C@@]3(C)CC[C@H]4[C@H](C)CC[C@@H]1[C@@]24OO3,5.12
2,C[C@H]1[C@@H](OCCCCCCOC(=O)CCC(=O)O)O[C@@H]2O[C@@]3(C)CC[C@H]4[C@H](C)CC[C@@H]1[C@@]24OO3,4.28
3,C[C@H]1[C@@H](OCCOCCOCCOCCO)O[C@@H]2O[C@@]3(C)CC[C@H]4[C@H](C)CC[C@@H]1[C@@]24OO3,2.52
4,C[C@H]1[C@@H](OCCCOC(=O)CCC(=O)O)O[C@@H]2O[C@@]3(C)CC[C@H]4[C@H](C)CC[C@@H]1[C@@]24OO3,2.99
5,C[C@H]1[C@@H](OCCCCCO)O[C@@H]2O[C@@]3(C)CC[C@H]4[C@H](C)CC[C@@H]1[C@@]24OO3,3.97
6,C[C@H]1[C@@H](OCCCCCOC(=O)CCC(=O)O)O[C@@H]2O[C@@]3(C)CC[C@H]4[C@H](C)CC[C@@H]1[C@@]24OO3,3.86

# Test system: Plasmodium yoelii nigeriensis
# Assay: Antimalarial activity against chloroquine-, mefloquine-, halofantrine-resistant Plasmodium yoelii nigeriensis blood stream schizonts infected in Swiss mouse assessed as disease cured mouse at 12 mg/kg, im administered once daily for 4 days measured on day 28
# Format: functional, organism-based
# Parameters: dose 12 mg/kg
# Conditions: not given
row,SMILES,Activity
1,C[C@H]1[C@@H](OCCCCCCCCOC(=O)CCC(=O)O)O[C@@H]2O[C@@]3(C)CC[C@H]4[C@H](C)CC[C@@H]1[C@@]24OO3,inactive
2,C[C@H]1[C@@H](OCCOCCOCCOCCO)O[C@@H]2O[C@@]3(C)CC[C@H]4[C@H](C)CC[C@@H]1[C@@]24OO3,inactive
3,C[C@H]1[C@@H](OCCCCCO)O[C@@H]2O[C@@]3(C)CC[C@H]4[C@H](C)CC[C@@H]1[C@@]24OO3,Active

# Test system: Plasmodium yoelii nigeriensis
# Assay: Antimalarial activity against chloroquine-, mefloquine-, halofantrine-resistant Plasmodium yoelii nigeriensis infected in Swiss mouse assessed as protection from infection at 3 to 48 mg/kg, im administered once daily for 4 days measured on day 28 relative to artesunic acid
# Format: functional
# Conditions: dose mg/kg 3-48; route intramuscular
row,SMILES,fold change (FC)
1,C[C@H]1[C@@H](OCCCCCCCCOC(=O)CCC(=O)O)O[C@@H]2O[C@@]3(C)CC[C@H]4[C@H](C)CC[C@@H]1[C@@]24OO3,2

# Test system: Plasmodium yoelii nigeriensis
# Assay: Antimalarial activity against chloroquine-, mefloquine-, halofantrine-resistant Plasmodium yoelii nigeriensis blood stream schizonts infected in Swiss mouse assessed as suppression of parasitemia at 12 mg/kg, im administered once daily for 4 days relative to control
# Format: functional
# Conditions: route intramuscular
row,SMILES,Activity
1,C[C@H]1[C@@H](OCCCCCCCCOC(=O)CCC(=O)O)O[C@@H]2O[C@@]3(C)CC[C@H]4[C@H](C)CC[C@@H]1[C@@]24OO3,100%
2,C[C@H]1[C@@H](OCCOCCOCCOCCO)O[C@@H]2O[C@@]3(C)CC[C@H]4[C@H](C)CC[C@@H]1[C@@]24OO3,100%
3,C[C@H]1[C@@H](OCCCCCO)O[C@@H]2O[C@@]3(C)CC[C@H]4[C@H](C)CC[C@@H]1[C@@]24OO3,100%

# Test system: Plasmodium yoelii nigeriensis
# Assay: Antimalarial activity against chloroquine-, mefloquine-, halofantrine-resistant Plasmodium yoelii nigeriensis blood stream schizonts infected in Swiss mouse assessed as disease cured mouse at 24 mg/kg, im administered once daily for 4 days measured on day 28
# Format: functional, organism-based
# Parameters: dose 24 mg/kg
# Conditions: not given
row,SMILES,Activity
1,C[C@H]1[C@@H](OCCCCCCCCOC(=O)CCC(=O)O)O[C@@H]2O[C@@]3(C)CC[C@H]4[C@H](C)CC[C@@H]1[C@@]24OO3,Active
2,C[C@H]1[C@@H](OCCOCCOCCOCCO)O[C@@H]2O[C@@]3(C)CC[C@H]4[C@H](C)CC[C@@H]1[C@@]24OO3,inactive
3,C[C@H]1[C@@H](OCCCCCO)O[C@@H]2O[C@@]3(C)CC[C@H]4[C@H](C)CC[C@@H]1[C@@]24OO3,Active
4,C[C@H]1[C@@H](OCCCCCOC(=O)CCC(=O)O)O[C@@H]2O[C@@]3(C)CC[C@H]4[C@H](C)CC[C@@H]1[C@@]24OO3,inactive

# Test system: Plasmodium yoelii nigeriensis
# Assay: Antimalarial activity against chloroquine-, mefloquine-, halofantrine-resistant Plasmodium yoelii nigeriensis blood stream schizonts infected in Swiss mouse assessed as suppression of parasitemia at 3 mg/kg, im administered once daily for 4 days relative to control
# Format: functional
# Conditions: route intramuscular
row,SMILES,Activity
1,CCO[C@H]1O[C@@H]2O[C@@]3(C)CC[C@H]4[C@H](C)CC[C@@H]([C@H]1C)[C@@]24OO3 [ARTEMOTIL],100%
